Data set [1] has as its system mechanical allodynia in rats. In words: Mechanical allodynia in vivo assay (spinal nerve ligation). On the set-up: species or system rat. The note with it: for ED50: Rattus norvegicus, sc; for analgesia against mechanical allodynia: oral administration. How it is done: This assay determines the effectiveness of compounds in relieving one of the symptoms of neuropathic pain produced by spinal nerve ligation, namely mechanical allodynia. The surgical procedure was performed essentially as described by Kim and Chung, Pain, (1992) 50:355-363. Briefly, the rats were anesthetized with an intraperitoneal dose of pentobarbital sodium (65 mg/kg) with additional doses of anesthetic given as needed. Each animal was then placed in a prone position, a 3 cm lateral incision was made, and the left paraspinal muscles separated from the spinous process at the L4 -S2 level. The L6 transverse process was then removed in order to visually identify the L4 -L6 spinal nerves. The L5 and L6 spinal nerves were then individually isolated and tightly ligated with silk thread. The wound was then closed in layers by silk sutures. Seven to 28 days post-surgery, a calibrated series of eight von Frey filaments were used to assess mechanical allodynia. Animals were housed individually in plexiglass cages with a wire mesh floor. Filaments of increasing stiffness were applied perpendicular to the midplantar surface in the sciatic nerve distribution areas of the left hindpaw and were slowly depressed (4-6 seconds) until bending occurred. The filament application order and number of trials were determined by the up-down method of Dixon (Chaplan, et al., J. Neurosci. Methods, (1994) 53:55-63). Flinching and licking of the paw and paw withdrawal on the ligated side were all considered positive responses. The 50% paw withdrawal threshold (g) was then calculated and compared to control. The doses for the acute and chronic studies were selected on the basis of prior assessment of the acute effects on the test compounds on the gross behavior in normal rats. Briefly, the rats were weighed and grouped into cages, dosed with the test compound, and observed continuously for changes in behavior. […] Pinna and corneal reflexes were tested by using a piece of natural hair from a brush that is attached to a glass rod. The righting reflexes were tested by placing the rat flat on its back, and recording the time it takes for the animal to right itself onto all four legs. The posture and gait were assessed by placing the rat on the floor.

The nature of data set [2]: Adverse effects / gross behavior on dosing. The class given is in vivo, rat. The note with it: for doses with adverse side effects / behavioral problems / adverse side effects observed: cold allodynia acute study; for adverse side effects observed: doses higher than 60 mg/kg. The method, then:
The doses for the acute and chronic studies were selected on the basis of prior assessment of the acute effects on the test compounds on the gross behavior in normal rats. Briefly, the rats were weighed and grouped into cages, dosed with the test compound, and observed continuously for changes in behavior. […] Pinna and corneal reflexes were tested by using a piece of natural hair from a brush that is attached to a glass rod. The righting reflexes were tested by placing the rat flat on its back, and recording the time it takes for the animal to right itself onto all four legs. The posture and gait were assessed by placing the rat on the floor.
The selection of doses was similar to that of Example 12C.

The subject of data set [3] is cold allodynia in rats. In words: Cold allodynia in vivo assay (chronic constriction injury), acute studies. The note with it: cold allodynia, subcutaneous, acute; for ED50: Rattus norvegicus, sc; for potency (ED50) comparison of (R)-isomers: in words. On the set-up: species or system rat. How it is done: (§1) This assay determines the effectiveness of compounds in relieving one of the symptoms of neuropathic pain produced by unilateral mononeuropathy, namely cold allodynia. Unilateral mononeuropathy was produced in rats using the Chronic Constriction Injury model performed essentially as described by Bennet and Xie, Pain, (1988) 33:87-107. Briefly, the rats were anesthetized with an intraperitoneal dose of pentobarbital sodium (65 mg/kg) with additional doses of anesthetic given as needed. The lateral aspect of each rat's hind limb was shaved and scrubbed with Novasan. Using aseptic technique, an incision was made on the lateral aspect of the hind limb at the mid-thigh level. The biceps femoris was bluntly dissected to expose the sciatic nerve. On the right hind limb of each rat, four loosely tied ligatures were made around the sciatic nerve approximately 1-2 millimeters apart. On the left side of each rat, an identical dissection was performed except that the sciatic nerve was not ligated. The muscle was closed with a continuous suture pattern, and the skin was closed with wound clips. Each rat was placed individually into a plexiglass chamber with a metal plate 6 cm from the bottom. This chamber was filled with ice water to a depth of 2.5 cm above the metal plate, with the temperature of the bath maintained at 0° C. throughout the experiment. A timer was started, and the rat's response latency was measured to the nearest tenth of a second. A "response" was defined as a rapid withdrawal of the right ligated hindpaw completely out of the water while the animal was stationary and not pivoting. An exaggerated limp while the animal was walking was not scored as a response. Maximum immersion time was 20 seconds with a 20 minute interval between trials. The screening criteria were 1) the average of two trials was less than or equal to 13 seconds, and 2) there was consistency across the two trial scores. Animals were screened for hypersensitivity to cold on post-surgery days 4 through 10, and selected for inclusion in dose-response studies based on the criteria described above. The pre-dose screening values were used as the animal's baseline cold allodynia scores. For acute studies, the animals received either subcutaneous or oral injections and were tested for cold allodynia at 1, 3, and sometimes 5 hours post-dose. The selection of doses was similar to that of Example 12C.

A further data set deals with neuropathic pain models. In words: Neuropathic pain models / standard assays (summary statements). The class given is in vivo. The note with it: summary statement, (S)- vs (R)-enantiomer.
Data set [4] deals with voltage-gated sodium channels ([3H]BTX binding, rat cortex). Put plainly: [3H]BTX binding assay, rat cortex membranes. Particulars: rat brain cortex membranes. How it is done:
The following assays characterize the interaction of the compounds of Formula I with ligand binding sites on voltage-gated sodium channels.
Frozen tissues were obtained from Pel-Freez Biologicals (Rogers, AR). Tissues were homogenized in 10 volumes of a Tris-sucrose buffer (10 mM Tris-HCl, 250 mM sucrose, pH 7.4 at 4° C.) using 10 strokes with a glass-glass, hand-held homogenizer. The homogenates were filtered through nylon mesh and then centrifuged at 1,000×g for 15 minutes. The pellets were resuspended in a Hepes buffer (50 mM Hepes, 130 mM choline chloride, 5 mM glucose, 5.4 mM KCl, pH 7.4 at 4° C.). The resuspended pellets were centrifuged at 1,000×g for 15 minutes, resuspended in a Hepes buffer (50 mM Hepes, 130 mM choline chloride, 5 mM glucose, 5.4 mM KCl, pH 7.4 at 25° C.) and, frozen at -70° C. until used in binding assays.
Nonspecific binding was defined in the presence of 1 mM veratridine. Unless otherwise specified, PbTx (0.1 μM) and LqTx (50 μg/ml) were included in the assays. Membranes were incubated for 60 minutes at 25° C. and then filtered using GF/B glass fiber filters that had been pretreated with 0.3% PEI. Filters were rinsed with 3×1 ml of ice cold 50 mM Tris-HCl (pH 7.4 at 4° C.) and the bound radioactivity was determined by scintillation counting (Packard Top-count).

Data set [5] concerns cold allodynia in rats. In words: Cold allodynia in vivo assay (chronic constriction injury), chronic studies. On the set-up: species or system rat. Particulars: oral, chronic; (R)-enantiomer 10 and 20 mg/kg, sub-threshold. How it is done: as §1, with “chronic” for “acute”, “animals received subcutaneous or oral injections twice daily for 4 days and once on day 5. The animals were tested for allodynia on day 1 at 1, 3 and 5 hours following the 8 am dose, and at 5 hours following the 8 am dose on days 3 and 5. Two days later, the animals were tested for cold allodynia to assess whether there was a wash-out of the drug being tested. Following this screening for cold allodynia, the animals in two of the three chronic studies” for “animals”, “of the drug” for “and were tested for cold allodynia”, “a dose previously shown” for “1, 3, and sometimes 5 hours post-dose. The selection of doses was similar”, “produce significant anti-allodynic effects acutely. […]” for “that of Example 12C.”

Where [6] appears, read: mechanical allodynia, subcutaneous.
[7] abbreviates: subcutaneous, mechanical allodynia study.

From US5688830A, “Treatment of neuropathic pain” (Syntex (U.S.A.) Inc., priority 1997, dated 1997) come the findings set out here.

The term ED50 denotes the dose that gives a 50% effect, or the effect in half of the subjects.

Where two headings read alike, the source gives them in different places.

For `CNC(C)COc1c(C)cccc1C` (racemic) [Formula III racemate, [2-(2,6-dimethylphenoxy)-1-methylethyl]-methylamine], in data set [1] (setting [6]), the ED50 turned out to be 31.3 mg/kg, the EDmax was found to be 67% and the “maximal analgesic activity (Emax)” value is 67%.
Consider `CCN[C@@H](C)COc1c(C)cccc1C` [Formula I (S)-, (S)-[2-(2,6-dimethylphenoxy)-1-methylethyl]-ethylamine], for which, in data set [2] (oral administration, mechanical allodynia study), the “doses with adverse side effects” value is “greater than 60 mg/kg”. The “doses with adverse side effects / behavioral problems” value in data set [2] (subcutaneous) is “higher than 60 mg/kg”. In data set [2] (subcutaneous), the “adverse side effects observed” value is “convulsions and immobility”. The 50% effective dose (ED50) with cold allodynia in rats [3] (1 hr, read-out: ED50 1 hr) was found to be 12.8 mg/kg; with cold allodynia in rats [3] (3 hr, read-out: ED50 3 hr), 10 mg/kg. Also, in the data set with cold allodynia in rats [3] (1 hr), the “Emax 1 hr” value is 100%. For the same molecule, in the data set on cold allodynia in rats [3] (3 hr), the “Emax 3 hr” value is 58%. The deleterious side effects result with neuropathic pain models is given as “deleterious side effects are largely confined to the (S)-enantiomer”. Besides, the “analgesia against mechanical allodynia” value in data set [1] is on record as “did not produce analgesia”. Also, in data set [4], the “potency of (R)- versus (S)-enantiomer in inhibiting [3H]BTX binding” value is reported as “no difference in the potencies”.
As to `CCCNC(C)COc1c(C)cccc1C` (racemic) [Formula IV racemate, [2-(2,6-Dimethylphenoxy)-1-methylethyl]-propylamine, reference compound], in data set [2] (setting [7]), the adverse events entry was “adverse events” and the “dose at which adverse events occur” value is recorded as 60 mg/kg. Besides, the adverse events result in data set [2] (subcutaneous, mechanical allodynia study, listed as Compound IV) was “convulsions and severe ataxia”. Moreover, the 50% effective dose (ED50) in data set [1] (setting [6]) was more than 30 mg/kg. Further, the “potency (ED50) comparison” value in data set [1] (mechanical allodynia, subcutaneous, in words) is on record as “less potent than compound III”.
With `CN[C@H](C)COc1c(C)cccc1C` [Formula III (R)-, [2-(2,6-dimethylphenoxy)-1-methylethyl]-methylamine, reference compound], the median effective dose (ED50) with cold allodynia in rats [3] (1 hr, read-out: ED50 1 hr) was found to be 26.1 mg/kg; in the data set on cold allodynia in rats [3] (3 hr, read-out: ED50 3 hr), 31.4 mg/kg. In the data set on cold allodynia in rats [3] (1 hr), the “Emax 1 hr” value worked out at 76%. In the data set with cold allodynia in rats [3] (3 hr), the “Emax 3 hr” value stood at 74%. Further, in the data set with cold allodynia in rats [3], the “potency (ED50) comparison of (R)-isomers” value was “comparable potency”.
As to `Cc1cccc(C)c1OCC(C)N` (racemic) [Formula II racemate, 2-(2,6-Dimethylphenoxy)-1-methyl-ethylamine, reference compound], in the data set on cold allodynia in rats [3] (1 hr, read-out: ED50 1 hr), the ED50 was 29.8 mg/kg. The 50% effective dose (ED50) in the data set on cold allodynia in rats [3] (3 hr, read-out: ED50 3 hr) came to 33.6 mg/kg. The “Emax 1 hr” value in the data set on cold allodynia in rats [3] (1 hr) is 73%. The “Emax 3 hr” value in the data set on cold allodynia in rats [3] (3 hr) was determined as 80%. In data set [1] (setting [6]), the EDmax amounted to 29% and the “maximal analgesic activity (Emax)” value was 29%. In addition, in data set [1], the “analgesia against mechanical allodynia” value is “did not produce analgesia”. The “anti-allodynic effect after chronic oral dosing” value with cold allodynia in rats [5] is listed as “no anti-allodynic effect”.
Turning to `CCCN[C@H](C)COc1c(C)cccc1C` [Formula IV (R)-, [2-(2,6-Dimethylphenoxy)-1-methylethyl]-propylamine, reference compound], in data set [2] (subcutaneous), the “doses with adverse side effects / behavioral problems” value is recorded as “higher than 60 mg/kg”; the “adverse side effects observed” value was “splayed limbs and abnormal righting reflexes”. Besides, in the data set with cold allodynia in rats [3] (1 hr, read-out: ED50 1 hr), the median effective dose (ED50) came to 28.4 mg/kg. Further, in the data set with cold allodynia in rats [3] (3 hr, read-out: ED50 3 hr), the ED50 is 29.9 mg/kg. In the data set with cold allodynia in rats [3] (1 hr), the “Emax 1 hr” value stood at 74%. In addition, the “Emax 3 hr” value in the data set on cold allodynia in rats [3] (3 hr) is 74%. In the data set on cold allodynia in rats [3], the “potency (ED50) comparison of (R)-isomers” value is recorded as “comparable potency”.
